According to patent US12304890B2, “R-type pyridyloxycarboxylic acid, salt and ester derivative thereof, and preparation method therefor, and herbicidal composition and application thereof” (Qingdao Kingagroot Chemical Compound Co., Ltd., priority 2018, dated 2025):

Tests used:
Type in all cases: in vivo
Echinochloa crusgalli = assay: Post-emergence test experiment, Echinochloa crusgalli; settings: 1000 g a.i./ha, 3 weeks in greenhouse, fresh weight inhibition
How it was run: (§1)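 Weed and crop seeds were sown in soil-filled pots, covered with 0.5-2 cm soil and grown in a greenhouse. Plants were sprayed at the 2-3 leaf stage, 2 weeks after sowing. Compounds were in acetone with tween-80 plus methyl oleate emulsible concentrate synergist (1.5 liters per hectare). Fresh weight inhibition was scored after 3 weeks.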

[1] = test system: Monocotyledonous and dicotyledonous weed seeds and main crop seeds; assay: Post-emergence test experiment, other weeds and crops (Table 4, 1000 g a.i./ha); settings: 3 weeks in greenhouse, fresh weight inhibition
How it was run: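 Weed and crop seeds (wheat, corn, rice, soybean, cotton, oilseed, millet, sorghum) sown in soil pots in a greenhouse and sprayed at 2-3 leaf stage, 2 weeks after sowing. Compound in acetone/tween-80 with methyl oleate concentrate (1.5 L/ha) as synergist. Effect recorded as fresh-weight growth inhibition rate.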

Digitaria sanguinalis = assay: Post-emergence test experiment, Digitaria sanguinalis; settings: 1000 g a.i./ha, 3 weeks in greenhouse, fresh weight inhibition
How it was run: as §1

C=CCOC(=O)C(C)Oc1nc(F)c(Cl)c(N)c1Cl (centres unmarked) [Compound 2-273]
Activity level (growth inhibition rate), Echinochloa crusgalli (Echinochloa crusgalli): 5 (Level 5: the growth inhibition rate is greater than 85%)
Activity level (growth inhibition rate), Abutilon theophrasti Medic. [1]: 5 (Level 5: the growth inhibition rate is greater than 85%)
Activity level (growth inhibition rate), Galium aparine [1]: 5 (Level 5: the growth inhibition rate is greater than 85%)
Activity level (growth inhibition rate), Monochoria Vaginalis [1]: 5 (Level 5: the growth inhibition rate is greater than 85%)
Activity level (growth inhibition rate), Digitaria sanguinalis (Digitaria sanguinalis): 5 (Level 5: the growth inhibition rate is greater than 85%)

COCCCSC(=O)C(C)Oc1nc(F)c(Cl)c(N)c1Cl (centres unmarked) [Compound 2-272]
Activity level (growth inhibition rate), Echinochloa crusgalli (Echinochloa crusgalli): 5 (Level 5: the growth inhibition rate is greater than 85%)
Activity level (growth inhibition rate), Abutilon theophrasti Medic. [1]: 5 (Level 5: the growth inhibition rate is greater than 85%)
Activity level (growth inhibition rate), Galium aparine [1]: 5 (Level 5: the growth inhibition rate is greater than 85%)
Activity level (growth inhibition rate), Monochoria Vaginalis [1]: 5 (Level 5: the growth inhibition rate is greater than 85%)
Activity level (growth inhibition rate), Digitaria sanguinalis (Digitaria sanguinalis): 5 (Level 5: the growth inhibition rate is greater than 85%)

CCCCCCC(C)OC(=O)[C@@H](C)Oc1nc(F)c(Cl)c(N)c1Cl (some centres unmarked) [Compound 2-163]
Activity level (growth inhibition rate), Echinochloa crusgalli (Echinochloa crusgalli): 5 (Level 5: the growth inhibition rate is greater than 85%)
Activity level (growth inhibition rate), Abutilon theophrasti Medic. [1]: 5 (Level 5: the growth inhibition rate is greater than 85%)
Activity level (growth inhibition rate), Galium aparine [1]: 5 (Level 5: the growth inhibition rate is greater than 85%)
Activity level (growth inhibition rate), Monochoria Vaginalis [1]: 5 (Level 5: the growth inhibition rate is greater than 85%)
Activity level (growth inhibition rate), Digitaria sanguinalis (Digitaria sanguinalis): 5 (Level 5: the growth inhibition rate is greater than 85%)

COC(=O)[C@@H](C)Oc1nc(C)c(Cl)c(N)c1Cl [Compound 2-32]
Activity level (growth inhibition rate), Echinochloa crusgalli (Echinochloa crusgalli): 5 (Level 5: the growth inhibition rate is greater than 85%)
Activity level (growth inhibition rate), Abutilon theophrasti Medic. [1]: 5 (Level 5: the growth inhibition rate is greater than 85%)
Activity level (growth inhibition rate), Galium aparine [1]: 5 (Level 5: the growth inhibition rate is greater than 85%)
Activity level (growth inhibition rate), Monochoria Vaginalis [1]: 5 (Level 5: the growth inhibition rate is greater than 85%)
Activity level (growth inhibition rate), Digitaria sanguinalis (Digitaria sanguinalis): 5 (Level 5: the growth inhibition rate is greater than 85%)

CCCCCCSC(=O)[C@@H](C)Oc1nc(F)c(Cl)c(N)c1Cl [Compound 2-102]
Activity level (growth inhibition rate), Echinochloa crusgalli (Echinochloa crusgalli): 5 (Level 5: the growth inhibition rate is greater than 85%)
Activity level (growth inhibition rate), Abutilon theophrasti Medic. [1]: 5 (Level 5: the growth inhibition rate is greater than 85%)
Activity level (growth inhibition rate), Galium aparine [1]: 5 (Level 5: the growth inhibition rate is greater than 85%)
Activity level (growth inhibition rate), Monochoria Vaginalis [1]: 5 (Level 5: the growth inhibition rate is greater than 85%)
Activity level (growth inhibition rate), Digitaria sanguinalis (Digitaria sanguinalis): 5 (Level 5: the growth inhibition rate is greater than 85%)

C[C@@H](Oc1nc(F)c(Cl)c(N)c1Cl)C(=O)SCc1cccnc1 [Compound 2-347]
Activity level (growth inhibition rate), Echinochloa crusgalli (Echinochloa crusgalli): 5 (Level 5: the growth inhibition rate is greater than 85%)
Activity level (growth inhibition rate), Abutilon theophrasti Medic. [1]: 5 (Level 5: the growth inhibition rate is greater than 85%)
Activity level (growth inhibition rate), Galium aparine [1]: 5 (Level 5: the growth inhibition rate is greater than 85%)
Activity level (growth inhibition rate), Monochoria Vaginalis [1]: 5 (Level 5: the growth inhibition rate is greater than 85%)
Activity level (growth inhibition rate), Digitaria sanguinalis (Digitaria sanguinalis): 5 (Level 5: the growth inhibition rate is greater than 85%)

CC(C)C(C)OC(=O)[C@@H](C)Oc1nc(F)c(Cl)c(N)c1Cl (some centres unmarked) [Compound 2-95]
Activity level (growth inhibition rate), Echinochloa crusgalli (Echinochloa crusgalli): 5 (Level 5: the growth inhibition rate is greater than 85%)
Activity level (growth inhibition rate), Abutilon theophrasti Medic. [1]: 5 (Level 5: the growth inhibition rate is greater than 85%)
Activity level (growth inhibition rate), Galium aparine [1]: 5 (Level 5: the growth inhibition rate is greater than 85%)
Activity level (growth inhibition rate), Monochoria Vaginalis [1]: 5 (Level 5: the growth inhibition rate is greater than 85%)
Activity level (growth inhibition rate), Digitaria sanguinalis (Digitaria sanguinalis): 5 (Level 5: the growth inhibition rate is greater than 85%)

CC(C)CCSC(=O)[C@@H](C)Oc1nc(F)c(Cl)c(N)c1Cl [Compound 2-90]
Activity level (growth inhibition rate), Echinochloa crusgalli (Echinochloa crusgalli): 5 (Level 5: the growth inhibition rate is greater than 85%)
Activity level (growth inhibition rate), Abutilon theophrasti Medic. [1]: 5 (Level 5: the growth inhibition rate is greater than 85%)
Activity level (growth inhibition rate), Galium aparine [1]: 5 (Level 5: the growth inhibition rate is greater than 85%)
Activity level (growth inhibition rate), Monochoria Vaginalis [1]: 5 (Level 5: the growth inhibition rate is greater than 85%)
Activity level (growth inhibition rate), Digitaria sanguinalis (Digitaria sanguinalis): 5 (Level 5: the growth inhibition rate is greater than 85%)

C[C@@H](Oc1nc(F)c(Cl)c(N)c1Cl)C(=O)OCc1ccccn1 [Compound 2-342]
Activity level (growth inhibition rate), Echinochloa crusgalli (Echinochloa crusgalli): 5 (Level 5: the growth inhibition rate is greater than 85%)
Activity level (growth inhibition rate), Abutilon theophrasti Medic. [1]: 5 (Level 5: the growth inhibition rate is greater than 85%)
Activity level (growth inhibition rate), Galium aparine [1]: 5 (Level 5: the growth inhibition rate is greater than 85%)
Activity level (growth inhibition rate), Monochoria Vaginalis [1]: 5 (Level 5: the growth inhibition rate is greater than 85%)
Activity level (growth inhibition rate), Digitaria sanguinalis (Digitaria sanguinalis): 5 (Level 5: the growth inhibition rate is greater than 85%)

C[C@@H](Oc1nc(F)c(Cl)c(N)c1Cl)C(=O)OCc1ccc2ccccc2c1 [Compound 2-340]
Activity level (growth inhibition rate), Echinochloa crusgalli (Echinochloa crusgalli): 5 (Level 5: the growth inhibition rate is greater than 85%)
Activity level (growth inhibition rate), Abutilon theophrasti Medic. [1]: 5 (Level 5: the growth inhibition rate is greater than 85%)
Activity level (growth inhibition rate), Galium aparine [1]: 5 (Level 5: the growth inhibition rate is greater than 85%)
Activity level (growth inhibition rate), Monochoria Vaginalis [1]: 5 (Level 5: the growth inhibition rate is greater than 85%)
Activity level (growth inhibition rate), Digitaria sanguinalis (Digitaria sanguinalis): 5 (Level 5: the growth inhibition rate is greater than 85%)

CC(Oc1nc(F)c(Cl)c(N)c1Cl)C(=O)OCC#N (centres unmarked) [Compound 2-267]
Activity level (growth inhibition rate), Echinochloa crusgalli (Echinochloa crusgalli): 5 (Level 5: the growth inhibition rate is greater than 85%)
Activity level (growth inhibition rate), Abutilon theophrasti Medic. [1]: 5 (Level 5: the growth inhibition rate is greater than 85%)
Activity level (growth inhibition rate), Galium aparine [1]: 5 (Level 5: the growth inhibition rate is greater than 85%)
Activity level (growth inhibition rate), Monochoria Vaginalis [1]: 5 (Level 5: the growth inhibition rate is greater than 85%)
Activity level (growth inhibition rate), Digitaria sanguinalis (Digitaria sanguinalis): 5 (Level 5: the growth inhibition rate is greater than 85%)

CC(Oc1nc(F)c(Cl)c(N)c1Cl)C(=O)OC1CC1 (centres unmarked) [Compound 2-263]
Activity level (growth inhibition rate), Echinochloa crusgalli (Echinochloa crusgalli): 5 (Level 5: the growth inhibition rate is greater than 85%)
Activity level (growth inhibition rate), Abutilon theophrasti Medic. [1]: 5 (Level 5: the growth inhibition rate is greater than 85%)
Activity level (growth inhibition rate), Galium aparine [1]: 5 (Level 5: the growth inhibition rate is greater than 85%)
Activity level (growth inhibition rate), Monochoria Vaginalis [1]: 5 (Level 5: the growth inhibition rate is greater than 85%)
Activity level (growth inhibition rate), Digitaria sanguinalis (Digitaria sanguinalis): 5 (Level 5: the growth inhibition rate is greater than 85%)

CC(Oc1nc(F)c(Cl)c(N)c1Cl)C(=O)O.CN(C)CCO (centres unmarked) [Compound 2-14]
Activity level (growth inhibition rate), Echinochloa crusgalli (Echinochloa crusgalli): 5 (Level 5: the growth inhibition rate is greater than 85%)
Activity level (growth inhibition rate), Abutilon theophrasti Medic. [1]: 5 (Level 5: the growth inhibition rate is greater than 85%)
Activity level (growth inhibition rate), Galium aparine [1]: 5 (Level 5: the growth inhibition rate is greater than 85%)
Activity level (growth inhibition rate), Monochoria Vaginalis [1]: 5 (Level 5: the growth inhibition rate is greater than 85%)
Activity level (growth inhibition rate), Digitaria sanguinalis (Digitaria sanguinalis): 5 (Level 5: the growth inhibition rate is greater than 85%)

CCC(C)OC(=O)[C@@H](C)Oc1nc(F)c(Cl)c(N)c1Cl (some centres unmarked) [Compound 2-81]
Activity level (growth inhibition rate), Echinochloa crusgalli (Echinochloa crusgalli): 5 (Level 5: the growth inhibition rate is greater than 85%)
Activity level (growth inhibition rate), Abutilon theophrasti Medic. [1]: 5 (Level 5: the growth inhibition rate is greater than 85%)
Activity level (growth inhibition rate), Galium aparine [1]: 5 (Level 5: the growth inhibition rate is greater than 85%)
Activity level (growth inhibition rate), Monochoria Vaginalis [1]: 5 (Level 5: the growth inhibition rate is greater than 85%)
Activity level (growth inhibition rate), Digitaria sanguinalis (Digitaria sanguinalis): 5 (Level 5: the growth inhibition rate is greater than 85%)

C[C@@H](Oc1nc(F)c(Cl)c(N)c1Cl)C(=O)SCc1ccc(C#N)cc1 [Compound 2-338]
Activity level (growth inhibition rate), Echinochloa crusgalli (Echinochloa crusgalli): 5 (Level 5: the growth inhibition rate is greater than 85%)
Activity level (growth inhibition rate), Abutilon theophrasti Medic. [1]: 5 (Level 5: the growth inhibition rate is greater than 85%)
Activity level (growth inhibition rate), Galium aparine [1]: 5 (Level 5: the growth inhibition rate is greater than 85%)
Activity level (growth inhibition rate), Monochoria Vaginalis [1]: 5 (Level 5: the growth inhibition rate is greater than 85%)
Activity level (growth inhibition rate), Digitaria sanguinalis (Digitaria sanguinalis): 5 (Level 5: the growth inhibition rate is greater than 85%)

C#CCOC(=O)C(C)Oc1nc(F)c(Cl)c(N)c1Cl (centres unmarked) [Compound 2-275]
Activity level (growth inhibition rate), Echinochloa crusgalli (Echinochloa crusgalli): 5 (Level 5: the growth inhibition rate is greater than 85%)
Activity level (growth inhibition rate), Abutilon theophrasti Medic. [1]: 5 (Level 5: the growth inhibition rate is greater than 85%)
Activity level (growth inhibition rate), Galium aparine [1]: 5 (Level 5: the growth inhibition rate is greater than 85%)
Activity level (growth inhibition rate), Monochoria Vaginalis [1]: 5 (Level 5: the growth inhibition rate is greater than 85%)
Activity level (growth inhibition rate), Digitaria sanguinalis (Digitaria sanguinalis): 5 (Level 5: the growth inhibition rate is greater than 85%)
